In data set [1] the test system is pupil diameter of cats. Description: Cat pupil diameter response (pupillary constriction in the cat). It counts as in vivo. To be noted: for ED5 (equivalent response dose, from Area1-5 of pupil diameter versus time curve): area under pupil diameter vs time curve 1-5 hours, estimated from dose response relationship. As to the method: PGF2α analogues are known to contract the iris sphincter of cats and this assay is a generally accepted reference for activity.
Compounds of the present invention were therefore screened for pupillary constriction in the cat. The response is quantitated as Area1-5 values (area under the pupil diameter versus time curve from 1-5 hours), and the equivalent response dose (ED5) is estimated from its dose response relationship.

Data set [2] deals with IOP in cynomolgus monkey eyes. Description: Monkey IOP response in lasered (ocular hypertensive) cynomolgus monkey eyes. It counts as in vivo. To be noted: lasered right eyes of cynomolgus monkeys; five-dose regimen; estimated from dose response relationship. Here is the method:
In the study presented below, compound 6 (Table 2, above) was tested for IOP-lowering effect in cynomolgus monkey eyes.
The right eyes of the cynomolgus monkeys used in this study were previously given laser trabeculoplasty to induce ocular hypertension in the lasered eye. Animals had been trained to sit in restraint chairs and conditioned to accept experimental procedures without chemical restraint. IOP was determined with a pneumatonometer after light corneal anesthesia with dilute proparacaine. The test protocol included a five-dose treatment regimen because of the typical delayed response to prostaglandins. The designated test formulations were administered to the lasered right eyes, and the normal left eyes remained untreated, although IOP measurements were taken. Baseline IOP values were determined prior to treatment with the test formulation, and then IOP was determined from 1 to 7 hours after the first dose, 16 hours after the fourth dose, and 1 to 4 hours after the fifth dose.
The equivalent response dose (ED20) is estimated from the dose response relationship to be the dose producing a 20% peak reduction in IOP.

Data set [3] is described as follows: Systemic blood pressure, heart rate and blood pH/gas analysis in the rabbit ONH blood flow study. To be noted: 0.004% topical q.d. 7 days. Type of data set: in vivo, Dutch-Belted rabbits. Here is the method:
(§1) Purpose: A two-way crossover study design was used to compare the effects of Compound 1B (0.004%), topically applied, and dosing vehicle on microvascular optic nerve head blood flow, blood pressure, heart rate, and acid-base balance in fifteen acepromazine-tranquilized Dutch-Belted rabbits. Methods: Baseline measurements were taken before treatment and after drug-free washout periods of 14 days. Microvascular optic nerve head (ONH) blood flow was measured with a fundus camera-based Laser Doppler flowmeter (LDf). Thirty microliters o a 0.004% solution of Compound 1B or vehicle was administered in left eyes only q.d. for 7 days. Experimental measurements were made 2 hours after the topical dose was administered on day 8. A sterile 23 gauge intracatheter was inserted into the central ear artery to monitor blood pressure and to take blood samples for blood pH/gas analysis.

The subject of data set [4] is microvascular optic nerve head (ONH) blood flow. Description: Optic nerve head blood flow after one-week topical treatment in the rabbit (Laser Doppler flowmeter). Type of data set: in vivo, Dutch-Belted rabbits. As to the method: as §1

For `CC(C)(C)C(=O)OCCCC/C=C\C[C@@H]1[C@@H](CC[C@@H](O)COc2cccc(Cl)c2)[C@H](O)C[C@@H]1O` [Compound 8, (5Z)-(9S, 11R, 15R)-16-(3-Chlorophenoxy)-17,18,19,20-tetranor-9,11,15-trihydroxy-5-prostenol Pivaloate], the “ED5 (equivalent response dose, from Area1-5 of pupil diameter versus time curve)” value in data set [1] is 0.06 µg. The “potency in cat pupil diameter response compared with the standard compounds” value in data set [1] (versus PGF2α isopropyl ester and cloprostenol isopropyl ester) is given as “nearly equivalent potency”.
With `CC(C)OC(=O)CCC/C=C\CC1C(CC[C@@H](O)COc2cccc(C(F)(F)F)c2)[C@H](O)C[C@@H]1O` (stereo partly drawn) [Compound 6, (5Z)-(9S, 11R, 15R)-17,18,19,20-Tetranor-16-(3-trifluoromethylphenoxy)-9,11,15-trihydroxy-5-prostenoic Acid Isopropyl Ester], the “ED5 (equivalent response dose, from Area1-5 of pupil diameter versus time curve)” value in data set [1] is 0.2 µg. Besides, the “ED20 (dose producing a 20% peak reduction in IOP)” value in data set [2] is 0.3 µg.
On to `CC(C)OC(=O)CCC/C=C\C[C@@H]1[C@@H](/C=C/[C@@H](O)COc2cccc(Cl)c2)[C@H](O)C[C@@H]1O` [Compound 1A, Cloprostenol, isopropyl ester], for which the “ED5 (equivalent response dose, from Area1-5 of pupil diameter versus time curve)” value in data set [1] is 0.01 µg.
On to `CC(C)OC(=O)CCC/C=C\C[C@H]1C(O)CC(O)[C@@H]1/C=C/C(O)COc1cccc(C(F)(F)F)c1` (stereo partly shown) [Compound 1B, Fluprostenol, isopropyl ester], for which, in data set [3], the “changes in systemic blood pressure, heart rate, blood gas tensions and pH compared with the vehicle group” value is listed as “small non-significant changes”; the “mean percent decrease in arterial pCO2 tension” value was found to be 2.59±2.5%; the “mean percent decrease in arterial pO2 tension” value amounted to 1.44±2.03%; the “mean percent decrease in systemic arterial pH” value came out at 0.07±0.09%. Also, the “ONH blood flow, mean±SEM percent increase from baseline” value in data set [4] (0.004% solution, 30 microliters topical q.d. 7 days, measured 2 hours after dose on day 8, acepromazine-tranquilized rabbits) stood at 13.4±3.9%. Also, the “ONH blood flow compared to the vehicle treated group” value in data set [4] (0.004% topical q.d., p<0.05) was “significantly increased”.
As to `CCCCC[C@H](O)/C=C/[C@@H]1[C@@H](C/C=C\CCCC(=O)OC(C)C)[C@@H](O)C[C@H]1O` [PGF2α Isopropyl Ester, reference compound], the “ED5 (equivalent response dose, from Area1-5 of pupil diameter versus time curve)” value in data set [1] is 0.02 µg. In addition, in data set [2], the “ED20 (dose producing a 20% peak reduction in IOP)” value is 0.4 µg.

The values are drawn from patent US6344478B2, “Use of cloprostenol and fluprostenol analogues to treat glaucoma and ocular hypertension” (Alcon Manufacturing, Ltd., priority 1993, dated 2002).
